The record followed here is patent publication US8293914B2, “4-OXO,1-4-dihydroquinoline M1 receptor positive allosteric modulators” (Merck Sharp & Dohme Corp., priority 2008, dated 2012).

Each structure is given as a SMILES string.

This assay has as its target T1, acetylcholine muscarinic M1 receptor (CHOnfat/hM1 cells) (Homo sapiens, UniProt P11229).
T1 construct: expressed in transfected cells; host or cells: CHOnfat (CHO) cells expressing hM1
T1 sequence (P11229 1-460): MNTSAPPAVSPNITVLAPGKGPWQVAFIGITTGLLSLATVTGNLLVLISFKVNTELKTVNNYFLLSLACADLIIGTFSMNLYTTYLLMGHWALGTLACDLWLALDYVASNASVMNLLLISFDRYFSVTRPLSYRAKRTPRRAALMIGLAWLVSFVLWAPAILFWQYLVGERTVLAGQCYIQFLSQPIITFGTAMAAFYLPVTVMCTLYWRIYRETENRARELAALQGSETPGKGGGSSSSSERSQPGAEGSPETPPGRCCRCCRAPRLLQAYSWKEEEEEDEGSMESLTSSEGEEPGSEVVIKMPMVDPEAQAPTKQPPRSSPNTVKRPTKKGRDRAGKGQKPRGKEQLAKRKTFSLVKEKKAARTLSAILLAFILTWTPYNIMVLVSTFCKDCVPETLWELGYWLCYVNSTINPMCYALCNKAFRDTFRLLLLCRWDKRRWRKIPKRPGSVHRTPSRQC
Briefly: muscarinic M1 FLIPR calcium assay for positive allosteric modulator activity (acetylcholine EC20). Format: cell-based. The conditions noted are these: FLIPR intracellular Ca2+, 4 min preincubation, then EC20 acetylcholine (3 nM final), read-out: IP Value (inflection point). As to the method:
The assay studies the effect of one or several concentrations of test compounds on basal or acetylcholine-stimulated Ca^2+ levels using FLIPR.
Compounds are prepared and subjected to a preincubation period of 4 min. Thereafter, a single EC20 concentration of acetylcholine is added to each well (3 nM final). The intracellular Ca^2+ level of each sample is measured and compared to an acetylcholine control to determine any modulatory activity.
Cells: CHOnfat/hM1, hM2, hM3 or hM4 cells are plated 24 hr before the assay at a density of 18,000 cells/well (100 μL) in a 384 well plate. CHOnfat/hM1 and CHOnfat/hM3 Growth Medium: 90% DMEM (Hi Glucose); 10% HI FBS; 2 mM L-glutamine; 0.1 mM NEAA; Pen-Strep; and 1 mg/ml Geneticin, are added. For M2Gqi5CHOnfat and M4Gqi5CHOnfat cells, an additional 600 μg/ml hygromycin is added.
Buffers. […] Dye Loading Buffer: Assay Buffer plus 1% Fetal Bovine Serum and Fluo-4AM/Pluronic Acid Mixture. […] 20% Pluronic Acid Solution stock, with a concentration of 0.04% in Buffer, 0.02% in Assay.
65 μL of 2 mM Fluo-4AM are mixed with 130 μL of 20% Pluronic Acid. The resulting solution and 650 μL FBS is added to the assay buffer for a total volume of 65 mL. Positive Controls: 4-Br-A23187: 10 mM in DMSO; final concentration 10 μM. Acetylcholine: 10 mM in water, working stock at both 20 μM and 30 μM in assay buffer, final concentration of 10 μM. This is used to check the maximum stimulation of the CHOK1/hM1 cells. 20 μM (2×) acetylcholine is added in the preincubation part of the assay, and the 30 μM (3×) stock is added in the second part. (EC20)Acetylcholine: 10 mM in water, working stock of 9 nM (3×), and final concentration in assay is 3 nM. This is used after the preincubation with test compounds. Addition of the EC20 Acetylcholine to each well with a test compound will ascertain any modulator activity. 24 wells contain 3 nM Acetylcholine alone as a control.
Four 96-well plates are combined into a 384-well plate using Mosquito Nanolitre Pipetting System by transferring 1 μl of serial diluted compounds to each well, and 1 mM acetylcholine (100× stock concentration) were added as a control. Using Temo, 49 μl assay buffer is added to each well of the 384-well plate right before assay.
In a 96-well Whatman 2 ml Uniplate, 9 nM Acetylcholine (3×) is pipetted into wells corresponding to the screening compounds, and into control wells. The 30 μM acetylcholine control (3×) is added into control wells, and the 3× agonist plate is transferred into a 384-well plate.
Cells are washed three times with 100 μL, of buffer, leaving 30 μL of buffer in each well. Using Multimek, 30 μL of Dye Loading Buffer is added into each well and incubated at 37° C., 5% CO2 for up to one hr.
After 60 min, the cells are washed three times with 100 μL of buffer, leaving 30 μL of buffer in each well. The cell plate, screening plate, and agonist addition plates are placed on the platform in the FLIPR and the door is closed. A signal test to check background fluorescence and basal fluorescence signal is performed. Laser intensity is adjusted if necessary.
4 min of preincubation with the test compounds is provided to determine any agonist activity on the M1 receptor by comparison to the 1 mM acetylcholine control. After preincubation, the EC20 value of acetylcholine (3 nM final) is added to determine any modulator activity.
The inflection point is calculated from the FLIPR values, and is a measure of activity.
On to `O=C(O)c1cn(Cc2ccc(-c3ccc(F)nc3)cn2)c2c(F)cccc2c1=O` [Example 1, 5-{6-[(3-Carboxy-8-fluoro-4-oxoquinolin-1(4H)-yl)methyl]pyridine-3-yl}-2-fluoropyridinium], for which the EC50 was 202 nM. The same measure for `CCn1cc(-c2ccc(Cn3cc(C(=O)O)c(=O)c4c(F)ccc(F)c43)nc2)cn1` [Example 2]: 65 nM; for `O=C(O)c1cn(Cc2ccc(-c3ccc(F)nc3)cn2)c2cccc(F)c2c1=O` [Example 7]: 495 nM; for `Nc1ccc(-c2ccc(Cn3cc(C(=O)O)c(=O)c4c(F)cccc43)nc2)cn1` [Example 10]: 103 nM. Regarding `O=C(O)c1cn(Cc2ccc(-c3ccc(N4CCOCC4)nc3)cn2)c2cccc(F)c2c1=O` [Example 27], the EC50 is 100 nM. As for `Nc1cccc(-c2ccc(Cn3cc(C(=O)O)c(=O)c4cccc(F)c43)nc2)c1` [Example 55], the figure is 24 nM; as for `O=C(O)c1cn(Cc2ccc(-n3cccn3)cn2)c2c(F)cccc2c1=O` [Example 68], 1900 nM. As for `CS(=O)(=O)Nc1cccc(-c2ccc(Cn3cc(C(=O)O)c(=O)c4cccc(F)c43)nc2)c1` [Example 101], the figure is 99 nM; as for `O=C(O)c1cn(Cc2ccc(-c3ccc(F)cc3F)cn2)c2c(F)cccc2c1=O` [Example 108], 745 nM. The same measure for `COc1ccc(-c2ccc(Cn3cc(C(=O)O)c(=O)c4c(F)ccc(F)c43)nc2)cn1` [Example 134]: 302 nM; for `O=C(O)c1cn(Cc2ccc(-c3cnn(CC(F)(F)F)c3)cn2)c2c(F)ccc(F)c2c1=O` [Example 156]: 114 nM; for `O=C(O)c1cn(Cc2cccc(-n3cccn3)n2)c2c(F)ccc(F)c2c1=O` [Example 160]: 2240 nM.

In the case of `Cn1ccc2cc(-c3ccc(Cn4cc(C(=O)O)c(=O)c5cccc(F)c54)cn3)ccc21` [Example 234], the EC50 is 37 nM. As for `O=C(O)c1cn(Cc2c(F)cncc2F)c2c(F)cccc2c1=O` [Example 283], the figure is 2890 nM; as for `O=C(O)c1cn(Cc2ncc(-c3ccccc3O)cn2)c2c(F)cccc2c1=O` [Example 293], 2320 nM; as for `O=C(O)c1cn(Cc2cnc(-c3ccncc3)cn2)c2c(F)cccc2c1=O` [Example 315], 7190 nM. As for `O=C(O)c1cn(Cc2ccc(-c3cccc(O)c3)nn2)c2c(F)cccc2c1=O` [Example 319], the figure is 382 nM. For `O=C(O)c1cn(Cc2ccc(-c3ccccc3F)nn2)c2c(F)cccc2c1=O` [Example 329], the EC50 came to 8660 nM. As for `O=C(O)c1cn(Cc2ccc(N3CCC3)nn2)c2c(F)cccc2c1=O` [Example 334], the figure is 5250 nM; as for `C[S+]([O-])c1ccc(Cn2cc(C(=O)O)c(=O)c3cccc(F)c32)nn1` (stereo not shown) [Example 352], 24800 nM.

Regarding `O=C(O)c1cn(Cc2ccc(N3CCCCC3)nn2)c2c(F)cccc2c1=O` [Example 372, 8-Fluoro-4-oxo-1-[(6-piperidin-1-ylpyridazin-3-yl)methyl]-1,4-dihydroquinoline-3-carboxylic acid], the EC50 turned out to be 14300 nM. The same measure for `CS(=O)(=O)c1ccc(Cn2cc(C(=O)O)c(=O)c3cccc(F)c32)nn1` [Example 373, 8-Fluoro-1-{[6-(methylsulfonyl)pyridazin-3-yl]methyl}-4-oxo-1,4-dihydroquinoline-3-carboxylic acid]: approximately 80000 nM.
